Data taken from patent US8993483B2, “Combination of active substances with insecticidal properties” (Bayer Intellectual Property GmbH, priority 2003, dated 2015).

Experiments:
[1] = tested on: caterpillars of the armyworm (Spodoptera frugiperda); assay: Spodoptera frugiperda test (cabbage leaf dip, kill rate); assay type: in vivo; settings: single active compound, 4 ppm
Description: (§1) The expected action for a given combination of two active compounds can be calculated as follows, according to S. R. Colby, Weeds 15 (1967), 20-22:
(§2) • X is the kill rate, expressed as a percentage of the untreated control, when employing active compound A at an application rate of m g/ha or in a concentration of m ppm, • Y is the kill rate, expressed as a percentage of the untreated control, when employing active compound B at an application rate of n g/ha or in a concentration of n ppm and • E is the kill rate, expressed as a percentage of the untreated control, when employing active compounds A and B at application rates of m and n g/ha or in a concentration of m and n ppm, then
(§3) If the actual insecticidal kill rate exceeds the calculated value, the action of the combination is superadditive, i.e. a synergistic effect is present. In this case, the actually observed kill rate must exceed the value calculated using the above formula for the expected kill rate (E).
Spodoptera frugiperda Test
(§4) To produce a suitable preparation of active compound, 1 part by weight of active compound is mixed with the stated amounts of solvent and emulsifier, and the concentrate is diluted with emulsifier-containing water to the desired concentration.
Cabbage leaves (Brassica oleracea) are treated by being dipped into the preparation of active compound of the desired concentration and are populated with caterpillars of the armyworm (Spodoptera frugiperda) while the leaves are still moist.
(§5) After the desired period of time, the kill in % is determined. 100% means that all caterpillars have been killed; 0% means that none of the caterpillars have been killed. The kill rates determined are calculated using Colby's formula (see page 43).

[2] = tested on: caterpillars of the cotton boll worm (Heliothis armigera); assay: Heliothis armigera test (cabbage leaf dip, kill rate); assay type: in vivo; settings: single active compound, 4 ppm
Description: as §1, §2, §3, §4
Cabbage leaves (Brassica oleracea) are treated by being dipped into the preparation of active compound of the desired concentration and are populated with caterpillars of the cotton boll worm (Heliothis armigera) while the leaves are still moist.
as §5

[3] = tested on: caterpillars of the diamond back moth (Plutella xylostella, normally sensitive strain); assay: Plutella xylostella test (normally sensitive strain; cabbage leaf dip, kill rate); assay type: in vivo; settings: single active compound, 4 ppm
Description: as §1, §2, §3
Plutella xylostella Test (Normally Sensitive Strain)
as §4
Cabbage leaves (Brassica oleracea) are treated by being dipped into the preparation of active compound of the desired concentration and are populated with larvae of caterpillars of the diamond back moth (Plutella xylostella, normally sensitive strain) while the leaves are still moist.
After the desired period of time, the kill in % is determined. 100% means that all caterpillars have been killed; 0% means that none of the caterpillars have been killed. The kill rates determined are calculated using Colby's formula (see sheet 1).

SMILES	melting point [°C]	also measured
Cc1cc(Cl)cc(C(=O)NC(C)C)c1NC(=O)c1cc(OCC(F)(F)F)nn1-c1ncccc1Cl	217 to 218	–
CC(C)NC(=O)c1cc(Cl)cc(Cl)c1NC(=O)c1cc(C(F)(F)F)nn1-c1ncccc1Cl	200 to 201	–
CC(C)NC(=O)c1cc(Cl)cc(Cl)c1NC(=O)c1cc(OCC(F)(F)F)nn1-c1ncccc1Cl	232 to 235	–
CC(C)NC(=O)c1cc(Cl)cc(Cl)c1NC(=O)c1cc(Cl)nn1-c1ncccc1Cl	197 to 199	–
CC(C)NC(=O)c1cc(Cl)cc(Cl)c1NC(=O)c1cc(Br)nn1-c1ncccc1Cl	188 to 190	–
CCNC(=O)c1cc(Cl)cc(C)c1NC(=O)c1cc(C(F)(F)F)nn1-c1ncccc1Cl	163 to 164	–
CCNC(=O)c1cc(Cl)cc(C)c1NC(=O)c1cc(OCC(F)(F)F)nn1-c1ncccc1Cl	205 to 207	–
CCNC(=O)c1cc(Cl)cc(C)c1NC(=O)c1cc(Cl)nn1-c1ncccc1Cl	199 to 200	–
CNC(=O)c1cc(Cl)cc(C)c1NC(=O)c1cc(OCC(F)(F)F)nn1-c1ncccc1Cl	207 to 208	–
CCNC(=O)c1cc(Cl)cc(C)c1NC(=O)c1cc(Br)nn1-c1ncccc1Cl	194 to 195	–
CCNC(=O)c1cc(Cl)cc(Cl)c1NC(=O)c1cc(C(F)(F)F)nn1-c1ncccc1Cl	201 to 202	–
CCNC(=O)c1cc(Cl)cc(Cl)c1NC(=O)c1cc(Cl)nn1-c1ncccc1Cl	206 to 208	–
CCNC(=O)c1cc(Cl)cc(Cl)c1NC(=O)c1cc(Br)nn1-c1ncccc1Cl	214 to 215	–
Cc1cc(Cl)cc(C(=O)NC(C)(C)C)c1NC(=O)c1cc(C(F)(F)F)nn1-c1ncccc1Cl	223 to 225	–
Cc1cc(Cl)cc(C(=O)NC(C)(C)C)c1NC(=O)c1cc(Cl)nn1-c1ncccc1Cl	163 to 165	–
Cc1cc(Cl)cc(C(=O)NC(C)(C)C)c1NC(=O)c1cc(Br)nn1-c1ncccc1Cl	159 to 161	–
CC(C)(C)NC(=O)c1cc(Cl)cc(Cl)c1NC(=O)c1cc(C(F)(F)F)nn1-c1ncccc1Cl	170 to 172	–
CC(C)(C)NC(=O)c1cc(Cl)cc(Cl)c1NC(=O)c1cc(Cl)nn1-c1ncccc1Cl	172 to 173	–
CC(C)(C)NC(=O)c1cc(Cl)cc(Cl)c1NC(=O)c1cc(Br)nn1-c1ncccc1Cl	179 to 180	–
CNC(=O)c1cc(Cl)cc(C)c1NC(=O)c1cc(Cl)nn1-c1ncccc1Cl	225 to 226	–
CNC(=O)c1cc(Br)cc(C)c1NC(=O)c1cc(C(F)(F)F)nn1-c1ncccc1Cl	222 to 223	–
CCNC(=O)c1cc(Br)cc(C)c1NC(=O)c1cc(C(F)(F)F)nn1-c1ncccc1Cl	192 to 193	–
Cc1cc(Br)cc(C(=O)NC(C)C)c1NC(=O)c1cc(C(F)(F)F)nn1-c1ncccc1Cl	197 to 198	–

SMILES	melting point [°C]	also measured
Cc1cc(Br)cc(C(=O)NC(C)(C)C)c1NC(=O)c1cc(C(F)(F)F)nn1-c1ncccc1Cl	247 to 248	–
CNC(=O)c1cc(Br)cc(C)c1NC(=O)c1cc(Cl)nn1-c1ncccc1Cl	140 to 141	–
CCNC(=O)c1cc(Br)cc(C)c1NC(=O)c1cc(Cl)nn1-c1ncccc1Cl	192 to 194	–
Cc1cc(Br)cc(C(=O)NC(C)C)c1NC(=O)c1cc(Cl)nn1-c1ncccc1Cl	152 to 153	–
Cc1cc(Br)cc(C(=O)NC(C)(C)C)c1NC(=O)c1cc(Cl)nn1-c1ncccc1Cl	224 to 225	–
CNC(=O)c1cc(Br)cc(C)c1NC(=O)c1cc(Br)nn1-c1ncccc1Cl	147 to 149	–
CCNC(=O)c1cc(Br)cc(C)c1NC(=O)c1cc(Br)nn1-c1ncccc1Cl	194 to 196	–
Cc1cc(Br)cc(C(=O)NC(C)C)c1NC(=O)c1cc(Br)nn1-c1ncccc1Cl	185 to 187	–
Cc1cc(Br)cc(C(=O)NC(C)(C)C)c1NC(=O)c1cc(Br)nn1-c1ncccc1Cl	215 to 221	–
CNC(=O)c1cc(I)cc(C)c1NC(=O)c1cc(C(F)(F)F)nn1-c1ncccc1Cl	199 to 200	–
CCNC(=O)c1cc(I)cc(C)c1NC(=O)c1cc(C(F)(F)F)nn1-c1ncccc1Cl	199 to 200	–
Cc1cc(I)cc(C(=O)NC(C)C)c1NC(=O)c1cc(C(F)(F)F)nn1-c1ncccc1Cl	188 to 189	–
Cc1cc(I)cc(C(=O)NC(C)(C)C)c1NC(=O)c1cc(C(F)(F)F)nn1-c1ncccc1Cl	242 to 243	–
CNC(=O)c1cc(I)cc(C)c1NC(=O)c1cc(Cl)nn1-c1ncccc1Cl	233 to 234	–
CCNC(=O)c1cc(I)cc(C)c1NC(=O)c1cc(Cl)nn1-c1ncccc1Cl	196 to 197	–
Cc1cc(I)cc(C(=O)NC(C)C)c1NC(=O)c1cc(Cl)nn1-c1ncccc1Cl	189 to 190	–
Cc1cc(I)cc(C(=O)NC(C)(C)C)c1NC(=O)c1cc(Cl)nn1-c1ncccc1Cl	228 to 229	–
CNC(=O)c1cc(Cl)cc(Cl)c1NC(=O)c1cc(C(F)(F)F)nn1-c1ncccc1Cl	155 to 157	–
CNC(=O)c1cc(I)cc(C)c1NC(=O)c1cc(Br)nn1-c1ncccc1Cl	229 to 230	–
Cc1cc(I)cc(C(=O)NC(C)C)c1NC(=O)c1cc(Br)nn1-c1ncccc1Cl	191 to 192	–
CNC(=O)c1cc(Br)cc(Br)c1NC(=O)c1cc(C(F)(F)F)nn1-c1ncccc1Cl	162 to 163	–
CCNC(=O)c1cc(Br)cc(Br)c1NC(=O)c1cc(C(F)(F)F)nn1-c1ncccc1Cl	188 to 189	–
CC(C)NC(=O)c1cc(Br)cc(Br)c1NC(=O)c1cc(C(F)(F)F)nn1-c1ncccc1Cl	192 to 193	–

SMILES	melting point [°C]	also measured
CC(C)(C)NC(=O)c1cc(Br)cc(Br)c1NC(=O)c1cc(C(F)(F)F)nn1-c1ncccc1Cl	246 to 247	–
CNC(=O)c1cc(Br)cc(Br)c1NC(=O)c1cc(Cl)nn1-c1ncccc1Cl	188 to 190	–
CCNC(=O)c1cc(Br)cc(Br)c1NC(=O)c1cc(Cl)nn1-c1ncccc1Cl	192 to 194	–
CC(C)NC(=O)c1cc(Br)cc(Br)c1NC(=O)c1cc(Cl)nn1-c1ncccc1Cl	197 to 199	–
CC(C)(C)NC(=O)c1cc(Br)cc(Br)c1NC(=O)c1cc(Cl)nn1-c1ncccc1Cl	210 to 212	–
CNC(=O)c1cc(Cl)cc(Cl)c1NC(=O)c1cc(OCC(F)(F)F)nn1-c1ncccc1Cl	192 to 195	–
CNC(=O)c1cc(Br)cc(Br)c1NC(=O)c1cc(Br)nn1-c1ncccc1Cl	166 to 168	–
CCNC(=O)c1cc(Br)cc(Br)c1NC(=O)c1cc(Br)nn1-c1ncccc1Cl	196 to 197	–
CC(C)NC(=O)c1cc(Br)cc(Br)c1NC(=O)c1cc(Br)nn1-c1ncccc1Cl	162 to 163	–
CC(C)(C)NC(=O)c1cc(Br)cc(Br)c1NC(=O)c1cc(Br)nn1-c1ncccc1Cl	194 to 196	–
CC(C)(C)NC(=O)c1cc(Br)cc(Cl)c1NC(=O)c1cc(C(F)(F)F)nn1-c1ncccc1Cl	143 to 145	–
CN(C)C(=O)c1cc(Br)cc(Br)c1NC(=O)c1cc(Cl)nn1-c1ncccc1Cl	153 to 155	–
Cc1cc(Br)cc(C(=O)N(C)C)c1NC(=O)c1cc(C(F)(F)F)nn1-c1ncccc1Cl	207 to 208	–
CN(C)C(=O)c1cc(Cl)cc(Cl)c1NC(=O)c1cc(Cl)nn1-c1ncccc1Cl	231 to 232	–
CN(C)C(=O)c1cc(Br)cc(Br)c1NC(=O)c1cc(Br)nn1-c1ncccc1Cl	189 to 190	–
CN(C)C(=O)c1cc(Cl)cc(Cl)c1NC(=O)c1cc(Br)nn1-c1ncccc1Cl	216 to 218	–
CNC(=O)c1cc(Cl)cc(Cl)c1NC(=O)c1cc(Cl)nn1-c1ncccc1Cl	205 to 206	–
CN(C)C(=O)c1cc(Cl)cc(Cl)c1NC(=O)c1cc(C(F)(F)F)nn1-c1ncccc1Cl	225 to 227	–
CN(C)C(=O)c1cc(Br)cc(Br)c1NC(=O)c1cc(C(F)(F)F)nn1-c1ncccc1Cl	228 to 229	–
CNC(=O)c1cc(Cl)cc(Cl)c1NC(=O)c1cc(Br)nn1-c1ncccc1Cl	245 to 246	–
N#C/N=C1\SCCN1Cc1ccc(Cl)nc1 [Ik, thiacloprid]	–	Kill rate in % after 6 d, found [1]: 0%; Kill rate in % after 6 d, found [2]: 25%; Kill rate in % after 6 d, found [3]: 0%
